Source: ChEMBL document CHEMBL1136074, “BR96 conjugates of highly potent anthracyclines” (Bioorg Med Chem Lett, 2003)

Key:
[1] = test system: L2987; test: In vitro inhibitory concentration of the unconjugated compound against human L2987 lung carcinoma cell line; format: functional, cell-based
[2] = test system: L2987; test: Potency against human L2987 lung carcinoma cell line relative to that of DOX 1a; format: functional
[3] = Selectivity ratio determined as IC50 IgG-1b to that of IC50 BR96-1b; format: functional
[4] = test system: L2987; test: In vitro inhibitory concentration of the BR96 conjugate of compound against human L2987 lung carcinoma cell line; format: functional, cell-based
[5] = test system: L2987; test: (§1) Potency against human L2987 lung carcinoma cell line relative to that of BR96-1b; format: functional
[6] = Selectivity ratio determined as IC50 IgG-2b to that of IC50 BR96-2b; format: functional
[7] = test system: L2987; test: In vitro inhibitory concentration of the IgG conjugate of compound against human L2987 lung carcinoma cell line; format: functional, cell-based
[8] = Hydrolytic stability at pH 7.0 at 37 degree C; expressed as T1/2; format: physicochemical; settings: buffer
[9] = Hydrolytic stability at pH 5.0 at 37 degree C; expressed as T1/2; format: physicochemical; settings: buffer
[10] = Selectivity ratio determined as IC50 IgG-3b to that of IC50 BR96-3b; format: functional
[11] = test system: L2987; test: as §1; format: functional, cell-based

COc1cccc2c1C(=O)c1c(O)c3c(c(O)c1C2=O)C[C@@](O)(C(=O)CO)C[C@@H]3OC1C[C@H](NCCCCC(OC(C)=O)OC(C)=O)C(O)[C@H](C)O1 (stereo partly specified)
IC50 [1]: 30 nM
Relative potency [2]: 10

COc1cccc2c1C(=O)c1c(O)c3c(c(O)c1C2=O)C[C@@](O)(/C(CO)=N/NC(=O)CCCCCN1C(=O)CC(S)C1=O)C[C@@H]3OC1C[C@H](N)C(O)[C@H](C)O1 (stereo partly specified)
Ratio [3]: 8
IC50 [4]: 1000 nM

COc1cccc2c1C(=O)c1c(O)c3c(c(O)c1C2=O)C[C@@](O)(/C(CO)=N/NC(=O)CCCCCN1C(=O)CC(S)C1=O)C[C@@H]3OC1C[C@H](NCCCCC(OC(C)=O)OC(C)=O)C(O)[C@H](C)O1 (stereo partly specified)
Relative potency [5]: 30
Ratio [6]: 300
IC50 [7]: 10000 nM
IC50 [4]: 30 nM

COc1cccc2c1C(=O)c1c(O)c3c(c(O)c1C2=O)C[C@@](O)(/C(CO)=N/NC(=O)CCCCCN1C(=O)CC(SCCO)C1=O)C[C@@H]3OC1C[C@H](NCCCCC(OC(C)=O)OC(C)=O)C(O)[C@H](C)O1 (stereo partly specified)
half-life [8]: > 100 h
half-life [9]: 6.5 h

COc1cccc2c1C(=O)c1c(O)c3c(c(O)c1C2=O)C[C@@](O)(/C(CO)=N/NC(=O)CCCCCN1C(=O)CC(SCCO)C1=O)C[C@@H]3OC1C[C@H](N)C(O)[C@H](C)O1 (stereo partly specified)
half-life [8]: > 120 h
half-life [9]: 7 h

COc1cccc2c1C(=O)c1c(O)c3c(c(O)c1C2=O)C[C@@](O)(C(=O)CO)C[C@@H]3OC1C[C@H](N2CCOCC2)C(O)[C@H](C)O1 (stereo partly specified)
IC50 [1]: 40 nM
Relative potency [2]: 8

COc1cccc2c1C(=O)c1c(O)c3c(c(O)c1C2=O)C[C@@](O)(C(=O)CO)C[C@@H]3O[C@H]1C[C@H](N)[C@H](O)[C@H](C)O1 [DOXORUBICIN]
IC50 [1]: 300 nM

COc1cccc2c1C(=O)c1c(O)c3c(c(O)c1C2=O)C[C@@](O)(/C(CO)=N/NC(=O)CCCCCN1C(=O)CC(SCCO)C1=O)C[C@@H]3OC1C[C@H](N2CCOCC2)C(O)[C@H](C)O1 (stereo partly specified)
half-life [8]: > 95 h
half-life [9]: 4.5 h

COc1cccc2c1C(=O)c1c(O)c3c(c(O)c1C2=O)C[C@@](O)(/C(CO)=N/NC(=O)CCCCCN1C(=O)CC(S)C1=O)C[C@@H]3OC1C[C@H](N2CCOCC2)C(O)[C@H](C)O1 (stereo partly specified)
Ratio [10]: 10
IC50 [11]: 5000 nM
IC50 [7]: 2000 nM
IC50 [4]: 200 nM
